{
  "source": "paper PMC7997574",
  "about": "“Lead Optimization of Benzoxazolone Carboxamides as Orally Bioavailable and CNS Penetrant Acid Ceramidase Inhibitors” (Journal of Medicinal Chemistry, 2020)",
  "target": "T1, monoacylglycerol lipase (MAGL) (Homo sapiens, UniProt Q99685)",
  "T1 construct": "purchased Cayman Scientific item; 705192",
  "T1 sequence (Q99685 1-303)": "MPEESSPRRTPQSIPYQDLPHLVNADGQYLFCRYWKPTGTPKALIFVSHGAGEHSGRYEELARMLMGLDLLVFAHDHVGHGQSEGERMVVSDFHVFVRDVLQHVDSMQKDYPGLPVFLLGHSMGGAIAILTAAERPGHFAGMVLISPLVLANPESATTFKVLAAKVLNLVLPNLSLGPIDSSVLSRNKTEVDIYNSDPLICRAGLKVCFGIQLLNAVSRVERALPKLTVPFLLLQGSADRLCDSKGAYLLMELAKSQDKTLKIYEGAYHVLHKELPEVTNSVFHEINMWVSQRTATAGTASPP",
  "assay": "In vitro hMAGL colorimetric assay",
  "type": "biochemical",
  "settings": "1 and 10 μM",
  "procedure": "The colorimetric assay to measure hMAGL activity was performed using an assay kit provided by Cayman Scientific (item. 705192), according to the manufacturer’s instructions. Briefly, in vitro activity was measured in 96-well plates, and DMSO was used as solvent. 10 μL of DMSO (100% initial activity wells: 100% IA) or compounds at two concentrations (1 and 10 μM) were preincubated for 5 min at rt with 150 μL of diluted assay buffer (10 mM Tris HCl, pH 7.2, containing 1 mM EDTA) containing hMAGL. In blank wells, 160 μL of the diluted assay buffer and 10 μL of DMSO were added. The reactions were initiated by adding 10 μL of MAGL substrate to all the wells, and plates were incubated for 10 min at rt. Absorbance values were measured at 405 nm, and percent inhibition was calculated by the following method: 100 – (Inhibitor/100% IA) × 100. The reported percentages of inhibition are the mean of at least three independent experiments performed in three technical replicates.",
  "data": [
    {"smiles": "CC(C)CNC(=O)n1c(=O)oc2cc(C3CCN(C)CC3)ccc21", "note": "[22m, N-Isobutyl-6-(1-methyl-4-piperidyl)-2-oxo-1,3-benzoxazole-3-carboxamide]", "values": [
      {"measurement": "effect on MAGL", "result": "no effect"}
    ]}
  ]
}
